Source: patent US9636324B2, “Use of 15-benzylidence-14-deoxy-11, 12 -dehyroandrographolide derivative in manufacture of medicaments for protecting liver and anti-hepatitis C virus” (Zhengzhou University, priority 2012, dated 2017)

Experiments:
[1] = tested on: mice with carbon tetrachloride induced liver damage; assay: Carbon tetrachloride induced chemical liver damage model in mice; type: in vivo, Kunming mice; details: for protective effect against liver damage induced by carbon tetrachloride (summary): mice, intragastric, 3 days; for ALT activity in serum vs model group / AST activity in serum vs model group: dosage groups not distinguished (0.66 and 0.88 mmol/kg); for ALT activity in serum vs model group / AST activity in serum vs model group / MDA level in liver homogenate vs model group / PGE2 level in liver homogenate vs model group: P<0.01; for MDA level in liver homogenate vs model group / PGE2 level in liver homogenate vs model group: dosage groups not distinguished; for magnitude of decrease in ALT activity compared to AD group / magnitude of decrease in AST activity compared to AD group / PGE2 content compared to AD group / ability to reduce lipid peroxide level in liver homogenate compared to AD group: P<0.05
Description: Kunming mice of clean grade (male, weight 20±2 g), after adaptively fed for 3 days, are randomly divided into normal group, model group, bifendate positive control group (200 mg/kg), AD group (0.88 mmol/kg), low dosage group (0.66 mmol/kg) and high dosage group (0.88 mmol/kg) of compound A, B, C and D, with 8 mice in each group. Positive group and each test group are intragastrically given with respective suspension prepared with 0.5% CMC-Na, and normal group and model group are given with 0.5% CMC-Na. The drugs are given for 3 days, and 1 h after the last administration, all mice except those in the normal group are intraperitoneally injected with a single dose of 0.3% carbon tetrachloride in peanut oil (0.1 mL/10 g). After 16 h, the eyeball of the mice in each group is enucleated to collect blood, which is centrifuged at 3000 rpm for 15 min to separate serum. ALT and AST activities are tested respectively (Nanjing Jiancheng Bioengineering Institute). The left lobe of liver is taken to prepare 10% homogenate using physiological saline, MDA (Nanjing Jiancheng Bioengineering Institute) and PGE2 contents are determined. Experimental data are expressed as average±standard deviation (X±s), analyzed with SPSS 11.5 statistic software, with P<0.05 meaning there is a significant difference. Other agents, drugs and experimental methods are the same as in EXAMPLE 1. In experimental investigation of both models, the following grouping method is used: Kunming mice of clean grade (male, weight 20±2 g) are randomly divided into normal group, model group, bifendate group (200 mg/kg), AD group (0.88 mmol/kg), low dosage group (0.66 mmol/kg) and high dosage group (0.88 mmol/kg) of compound E, with 8 mice in each group. Other agents, drugs and experimental methods are the same as in EXAMPLE 1 and in EXAMPLE 4, respectively.

[2] = tested on: mice with ConA induced liver damage; assay: ConA induced immunological liver damage model in mice; type: in vivo, Kunming mice; details: for protective effect against liver damage induced by ConA (summary): mice, intragastric, 3 days; for enzyme (ALT, AST) lowering effect compared to AD group: high dosage 0.88 mmol/kg vs AD 0.88 mmol/kg; for ability against liver lipid peroxidation compared with AD group: P<0.01 (B, C), P<0.05 (D)
Description: Kunming mice of clean grade (male, weight 20±2 g, supplied by the Laboratory Animal Center, Henan Province) are randomly divided into groups with 6 mice in each group. Bifendate (Xinchang Pharmaceutical Factory of Zhejiang Pharmaceutical Co., Ltd, 200 mg/kg) is used as positive control, andrographolide (AD) is provided by Furen Pharmaceutical Group Co., Ltd, and the test compounds are synthesized by the inventors with purities higher than 99.0%. Normal control group and model group are intragastrically given 0.5% sodium carboxymethylcellulose (CMC-Na), and test groups are given 0.5% CMC-Na suspensions with AD (0.88 mmol/kg), and low dosage (0.66 mmol/kg) and high dosage (0.88 mmol/kg) of compound A, B and C, respectively. The drugs are given for 3 days. One hour after the last administration, all mice except those in the normal control group are injected with a single dose of ConA (20 mg/kg) through the caudal vein. After 8 h, the eyeball is enucleated to collect blood, which is centrifuged at 3000 rpm for 15 min to separate serum. ALT and AST are tested according to the kit specification, respectively (Nanjing Jiancheng Bioengineering Institute). The left lobe of liver is taken to prepare 10% homogenate using physiological saline, MDA is determined according to the kit specification (Nanjing Jiancheng Bioengineering Institute). To 50 μL liver homogenate is added 2 mL of 0.5 mol/L KOH-methanol solution and kept at 50° C. water bath to isomerize for 20 minutes, then absorbance (A value) is measured at 278 nm, using the A value per mL of homogenate to represent the PGE2 content. Experimental data are expressed as average±standard deviation (X±s), analyzed with SPSS 11.5 statistic software, with P<0.05 meaning significant difference.
Kunming mice of clean grade (male, weight 20±2 g) are randomly divided into normal group, model group, bifendate (Zhejiang Wanbang Pharmaceutical Co., Ltd) positive control group (200 mg/kg), AD group (0.88 mmol/kg), low dosage group (0.66 mmol/kg) and high dosage (0.88 mmol/kg) group of compound D. ALT, AST, and MDA assay kits are purchased from Nanjing Jiancheng Bioengineering Institute. Other agents, drugs and experimental methods are the same as in EXAMPLE 1.
In experimental investigation of both models, the following grouping method is used: Kunming mice of clean grade (male, weight 20±2 g) are randomly divided into normal group, model group, bifendate group (200 mg/kg), AD group (0.88 mmol/kg), low dosage group (0.66 mmol/kg) and high dosage group (0.88 mmol/kg) of compound E, with 8 mice in each group. Other agents, drugs and experimental methods are the same as in EXAMPLE 1 and in EXAMPLE 4, respectively.

[3] = tested on: bovine viral diarrhea virus (BVDV-AV69); assay: CPE observation of effects on cytopathy caused by BVDV in MDBK cells; details: MDBK cells, BVDV-AV69; TC50 from MTT, IC50 from CPE
Description: Pharmaceutical effects of drugs of the invention against cytopathy caused by inoculation of BVDV virus are investigated using MDBK (NBL-1) cells (purchased from Chinese Academy of Science's Shanghai Center for Type Culture Collection) and bovine viral diarrhea virus (BVDV-AV69) (purchased from China Institute of Veterinary Drugs Control). Ribavirin (R; Henan RunHong Pharmaceutical Co., Ltd; batch number: E0909604) is used as positive drug control. MDBK cells are prepared as a suspension (1×10^5/mL) in RPMI1640 culture medium which contains 10% in volume fetal bovine serum (Zhejiang Tianhang Biotechnology Co., Ltd; batch number: 100524), 100 μg/mL streptomycin (Shenzheng Huayao Nanfang Pharmaceutical Co., Ltd; batch number: N09081), 100 U/mL penicillin (North China Pharmaceutical Co., Ltd; batch number: E0909604), and are seeded in 96 well plates (Costar, US) at 200 μL/well, placed in an incubator (Binder, Germany) at 37° C. with 5% CO2 to culture the cell. In 24 h when cells grow into a single layer, virus solution of 100 TCID50 (TCID50=10^−2.5) is added and incubated for 1.5 h. Maintenance medium with the drug is added at 200 μL/well after 3×PBS washes.
After digestion of MDBK cells with trypsin, cells with a concentration of 1×10^5/mL are seeded into 96 well plates at 200 μL/well, placed in an incubator at 37° C. with 5% CO2 for 24 h. After growing into a single layer, cells are attacked using 100 TCID50 (TCID50=10^−2.5) virus and incubated for 1.5 h. The virus-containing maintenance medium is discarded, and cells are washed with PBS, followed by addition of drug-containing maintenance medium with different concentrations, and incubation in 5% CO2 at 37° C. Normal cell control, virus control, drug treatment and ribavirin treatment groups are set. The cytopathy developing status is recorded everyday by observing under an inverted microscope.

[4] = tested on: mice with ethanol induced liver damage; assay: Ethanol induced liver damage model in mice; type: in vivo, Kunming mice
Description: Kunming mice of clean grade (male, weight 20±2 g), after adaptively fed for 3 days, are randomly divided into normal group, model group, bifendate positive control group (200 mg/kg), AD group (0.88 mmol/kg), low (0.44 mmol/kg), median (0.66 mmol/kg) and high (0.88 mmol/kg) dosage groups of compound A, and median (0.66 mmol/kg) and high (0.88 mmol/kg) dosage groups of compound B, with 8 mice in each group. Positive group and each test group are intragastrically given with respective suspension prepared with 0.5% CMC-Na, and normal group and model group are given with 0.5% CMC-Na. The drugs are given for 3 days, and 1 h after the last administration, all mice except those in the normal group are intragastrically administrated with a single dose of 50% EtOH ([…]). After 16 h, the eyeball of the mice in each group is enucleated to collect blood, which is centrifuged at 3000 rpm for 15 min to separate serum. ALT and AST activities are tested respectively (Nanjing Jiancheng Bioengineering Institute). The left lobe of liver is taken to prepare 10% homogenate using physiological saline, MDA (Nanjing Jiancheng Bioengineering Institute) content is determined. Experimental data are expressed as average±standard deviation (X±s), analyzed with SPSS 11.5 statistic software, with P<0.05 meaning there is a significant difference. Other agents, drugs and experimental methods are the same as in EXAMPLE 1.

[5] = dosage groups not distinguished, P<0.01
[6] = high dosage 0.88 mmol/kg vs AD 0.88 mmol/kg
[7] = low dosage 0.66 mmol/kg vs AD 0.88 mmol/kg
[8] = high dosage 0.88 mmol/kg, P<0.01

SMILES | protective effect against liver damage induced by carbon tetrachloride (summary) [1] | protective effect against liver damage induced by ConA (summary) [2] | TI value (therapy index, TC50/IC50) [3] | ALT activity in serum vs model group [1] | AST activity in serum vs model group [1] | MDA level in liver homogenate vs model group [1] | PGE2 level in liver homogenate vs model group [1] | magnitude of decrease in ALT activity compared to AD group [1, 6] | magnitude of decrease in AST activity compared to AD group [1, 6] | magnitude of decrease in ALT activity compared to AD group [1, 7] | magnitude of decrease in AST activity compared to AD group [1, 7] | enzyme (ALT, AST) lowering effect compared to AD group ([2]; P<0.05) | MDA content in liver homogenate vs model group [2, 8] | PGE2 content in liver homogenate vs model group [2, 8] | ability against liver lipid peroxidation compared with AD group ([2]; high dosage 0.88 mmol/kg) | also measured
C=C1CC[C@@H]2[C@](C)(CO)[C@H](O)CC[C@@]2(C)[C@@H]1C/C=C1/C(=O)OC[C@H]1O [AD, andrographolide] | Obvious Protective Effect | Obvious Protective Effect | 14.4 | – | – | – | – | – | – | – | – | – | – | – | – | MDA content in liver homogenate vs model group ([2]; AD 0.88 mmol/kg, compounds at different dosages, P<0.05): can reduce the MDA content; liver histopathologic section (HE staining) ([2]; HE stain, 200x, FIG. 5): liver cells are slightly swelled and loosed, a portion of liver cells show spotted necrosis and degeneration, no focal necrosis involving massive liver cells is observed
C=C1CCC2C(C)(CO)C(O)CCC2(C)C1C=CC1=CC(=Cc2ccccc2)OC1=O (stereo not shown) [B] | protective effect | notably protective effect | – | notably suppress the increase | notably suppress the increase | effectively reduce | effectively reduce | significantly better | significantly better | significantly better | significantly better | better enzyme lowering effect | more obvious effect | notably reduce PGE2 content | stronger resistant ability against liver lipid peroxidation | ALT activity in serum vs model group [4, 5]: effectively suppress; AST activity in serum vs model group [4, 5]: effectively suppress; MDA content in liver homogenate vs model group [4, 5]: effectively reduce the MDA content; ALT activity decreasing magnitude compared with AD group ([4]; high dosage 0.88 mmol/kg, P<0.01 (A), P<0.05 (B)): notably larger; protective effect against liver damage induced by ethanol (summary) ([4]; mice, intragastric, 3 days): protective effect; PGE2 content compared to AD group ([1]; low dosage 0.66 mmol/kg): notably lower; ability to reduce lipid peroxide level in liver homogenate compared to AD group ([1]; low dosage 0.66 mmol/kg): stronger ability to reduce the lipid peroxide level
C=C1CCC2C(C)(CO)C(O)CCC2(C)C1C=CC1=CC(=Cc2cccc(Br)c2)OC1=O (stereo not shown) [C] | protective effect | notably protective effect | – | notably suppress the increase | notably suppress the increase | effectively reduce | effectively reduce | significantly better | significantly better | significantly better | significantly better | better enzyme lowering effect | more obvious effect | notably reduce PGE2 content | stronger resistant ability against liver lipid peroxidation | PGE2 content compared to AD group ([1]; high dosage 0.88 mmol/kg): notably lower; ability to reduce lipid peroxide level in liver homogenate compared to AD group ([1]; high dosage 0.88 mmol/kg): stronger ability to reduce the lipid peroxide level
NC(=O)c1ncn([C@@H]2O[C@H](CO)[C@@H](O)[C@H]2O)n1 [Ribavirin(R), Ribavirin, reference compound] | – | – | 4 | – | – | – | – | – | – | – | – | – | – | – | – | –
